Here are results for five compounds from BindingDB's records for doi:10.1016/j.bmcl.2014.04.013 (University of Utah, 2014).

Each structure is given as a SMILES string.

Broadly, the EC50 is the concentration that produces a half-maximal response.

This test in a line: Agonist activity at AHR in FVB/N mouse primary mammary epithelial cells assessed as blockade of mammary branching morphogenesis after 144 hrs by microscopic analysis in presence of FGF2.
On to `Clc1ccc(-c2nc(-c3ccccc3)no2)c(Cl)c1`, for which the half-maximal effective concentration (EC50) was 1200 nM. With `Nc1cc(Cl)ccc1-c1nc(-c2ccccc2)no1` the figure was 1400 nM; with `O=[N+]([O-])c1cc(F)ccc1-c1nc(-c2ccccc2)no1`, 2200 nM; with `Nc1cc(C(F)(F)F)ccc1-c1nc(-c2ccccc2)no1`, 3200 nM.

Turning to `Clc1ccc(-c2nc(-c3ccccc3)no2)c(Cl)c1Cl`, the EC50 is > 10000 nM.
